Measured values from patent US20100069341A1, “TETRAHYDRO-PYRANOPYRAZOLE CANNABINOID MODULATORS” (priority 2005, published 2010).
Where two headings read alike, the source gives them in different places.

How the values were obtained:
Cannabinoid CB2 Receptor = target: T1, Cannabinoid CB2 Receptor (Homo sapiens, UniProt P34972); assay: Binding assay, cannabinoid CB2 receptor ([3H]-CP-55,940 displacement, SK-N-MC cell membranes); settings: test concentration of 0.2 μM, human CB2 in SK-N-MC membranes; for inhibition at 0.2 µM: read-out: Cannabinoid CB2 Receptor Binding, percent inhibition
T1 construct: expressed in transfected cells; semi-purified membrane pellet
T1 sequence (P34972 whole entry): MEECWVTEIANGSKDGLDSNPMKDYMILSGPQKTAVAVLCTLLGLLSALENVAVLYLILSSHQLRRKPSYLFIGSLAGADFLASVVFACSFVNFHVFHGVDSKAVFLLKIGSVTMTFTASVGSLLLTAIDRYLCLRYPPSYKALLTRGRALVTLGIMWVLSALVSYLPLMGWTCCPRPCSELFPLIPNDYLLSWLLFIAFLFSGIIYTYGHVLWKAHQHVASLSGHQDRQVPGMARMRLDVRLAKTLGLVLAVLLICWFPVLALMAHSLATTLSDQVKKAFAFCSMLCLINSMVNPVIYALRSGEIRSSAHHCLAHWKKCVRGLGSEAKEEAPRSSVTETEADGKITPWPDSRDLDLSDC
Procedure: (§1) Binding Assay for CB1 or CB2 Agonists or Inverse Agonists
(§2) The human CB1 and CB2 receptors were stably expressed in SK-N-MC cells transfected with pcDNA3 CB-1 (human) or pcDNA3 CB-2 (human). The cells were grown in T-180 cell culture flasks under standard cell culture conditions at 37° C. in a 5% CO2 atmosphere. The cells were harvested by trysinization and homogenized in a homogenization buffer (10 mM Tris, 0.2 mM MgCl2, 5 mM KCl, with protease inhibitors aprotinin, leupeptin, pepstatin A and bacitracin) and centrifuged (2000 g). The supernatant was then centrifuged in 2M sucrose (31,300 g) to produce a semi-purified membrane pellet. The pellet was resuspended in homogenization and store at −80° C.
(§3) On the day of the assay, the pellet was thawed on ice and diluted in assay buffer (50 mM Tris-HCl, 5 mM MgCl2, 2.5 mM EDTA, 0.5 mg/mL fatty acid free bovine serum albumin, pH 7.5). The diluted membrane was added with buffer, test compound or standard and the radioligand [H]^3+-CP-55,940 (0.2 nM) to the wells of a 96-well polypropylene plate. Non-specific binding was measured in wells containing 10 uM WIN 55,212. The plate was covered and incubated for 90 minutes at 30° C. The contents were then aspirated onto a Packard Unifilter GF/C filter bottom plate prewet with 0.5% polyethyleneimine. The wells of the polypropylene plate were rinsed and aspirated seven times with a 0.9% saline-0.5% Tween 20 solution. The Unifilter plate was dried, a scintillation cocktail was added to each well and the counts representing binding were quantitated in a TopCount scintillation counter.
For compounds tested, an IC50 binding value was obtained from percent inhibition studies in which various test concentrations were used. The binding value (in μM) was calculated by linear regression. For compounds without an IC50 binding value, the percent inhibition (in %) was obtained at a test concentration of 0.2 μM.

Cannabinoid CB1 Receptor = target: T2, Cannabinoid CB1 Receptor (Homo sapiens, UniProt P21554); assay: Binding assay, cannabinoid CB1 receptor ([3H]-CP-55,940 displacement, SK-N-MC cell membranes); settings: for inhibition at 0.2 µM: read-out: Cannabinoid CB1 Receptor Binding, percent inhibition
T2 construct: expressed in transfected cells; semi-purified membrane pellet
T2 sequence (P21554 whole entry): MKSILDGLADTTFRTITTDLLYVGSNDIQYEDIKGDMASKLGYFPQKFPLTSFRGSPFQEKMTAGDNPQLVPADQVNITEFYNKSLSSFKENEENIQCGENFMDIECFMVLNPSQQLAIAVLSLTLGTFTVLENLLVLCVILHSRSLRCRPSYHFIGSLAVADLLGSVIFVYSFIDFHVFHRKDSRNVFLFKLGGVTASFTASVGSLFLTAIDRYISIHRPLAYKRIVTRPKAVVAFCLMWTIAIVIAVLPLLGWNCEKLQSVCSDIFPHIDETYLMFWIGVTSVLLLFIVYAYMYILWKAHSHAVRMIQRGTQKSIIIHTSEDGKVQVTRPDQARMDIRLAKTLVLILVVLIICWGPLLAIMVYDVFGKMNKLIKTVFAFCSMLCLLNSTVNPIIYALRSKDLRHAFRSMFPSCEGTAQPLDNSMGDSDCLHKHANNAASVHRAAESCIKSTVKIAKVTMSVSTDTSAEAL
Procedure: as §1, §2
as §3, with “The diluted membrane was added with buffer, test compound or standard and the radioligand [H]^3+-CP-55,940 (0.2 nM) to the wells of a 96-well polypropylene plate. Non-specific binding was measured in wells containing 10 uM WIN 55,212.” left out
For compounds tested, an IC50 binding value was obtained from percent inhibition studies in which various test concentrations were used. The binding value (in μM) was calculated by linear regression.

[1] = test concentration of 0.2 μM, human CB1 in SK-N-MC membranes

Compound	inhibition at 0.2 µM (Cannabinoid CB2 Receptor) [%]	inhibition at 0.2 µM (Cannabinoid CB1 Receptor; [1]) [%]	IC50 (Cannabinoid CB1 Receptor) [nM]	Cannabinoid CB2 Receptor Binding, percent inhibition (Cannabinoid CB2 Receptor) [%]	Cannabinoid CB1 Receptor Binding, percent inhibition (Cannabinoid CB1 Receptor; [1]) [%]	inhibition at 0.2 µM (Cannabinoid CB1 Receptor) [%]
O=C(NN1CCCCC1)c1nn(-c2ccc(Cl)cc2Cl)c2c1COCC2Cc1ccc(F)cc1 (stereo not shown) [Cpd 23, 1-(2,4-dichloro-phenyl)-7-(4-fluoro-benzyl)-1,4,6,7-tetrahydro-pyrano[4,3-c]pyrazole-3-carboxylic acid piperidin-1-ylamide]	19	59	–	–	–	–
C[C@@H](NC(=O)c1nn(-c2ccc(Cl)cc2Cl)c2c1COC/C2=C\c1ccc(Cl)s1)c1ccccn1 [Cpd 61, (7Z)-7-(5-chloro-thiophen-2-ylmethylene)-1-(2,4-dichloro-phenyl)-1,4,6,7-tetrahydro-pyrano[4,3-c]pyrazole-3-carboxylic acid [(R)-1-pyridin-2-yl-ethyl]-amide]	9.5	84	50	–	–	–
O=C(NN1CCCCC1)c1nn(-c2ccc(Cl)cc2)c2c1COC/C2=C\c1ccc(F)cc1 [Cpd 11, (7Z)-1-(4-chloro-phenyl)-7-(4-fluoro-benzylidene)-1,4,6,7-tetrahydro-pyrano[4,3-c]pyrazole-3-carboxylic acid piperidin-1-ylamide]	6	55	–	–	–	–
C[C@H](NC(=O)c1nn(-c2ccc(Cl)cc2Cl)c2c1COC/C2=C\c1ccc(Cl)o1)c1ccccc1 [Cpd 70, (7Z)-7-(5-chloro-furan-2-ylmethylene)-1-(2,4-dichloro-phenyl)-1,4,6,7-tetrahydro-pyrano[4,3-c]pyrazole-3-carboxylic acid [(S)-1-phenyl-ethyl]-amide]	15	41	–	–	–	–
O=C(NN1CCN(CCO)CC1)c1nn(-c2ccc(Cl)cc2Cl)c2c1COC/C2=C\c1ccc(F)cc1 [Cpd 31, (7Z)-1-(2,4-dichloro-phenyl)-7-(4-fluoro-benzylidene)-1,4,6,7-tetrahydro-pyrano[4,3-c]pyrazole-3-carboxylic acid [4-(2-hydroxy-ethyl)-piperazin-1-yl]-amide]	15	10	–	–	–	–
O=C(NN1CC2CCCC2C1)c1nn(-c2ccc(Cl)cc2Cl)c2c1COC/C2=C\c1ccc(F)cc1 (stereo not shown) [Cpd 17, (7Z)-1-(2,4-dichloro-phenyl)-7-(4-fluoro-benzylidene)-1,4,6,7-tetrahydro-pyrano[4,3-c]pyrazole-3-carboxylic acid (hexahydro-cyclopenta[c]pyrrol-2-yl)-amide]	29	99	20	–	–	–
CC1CCCC(C)N1NC(=O)c1nn(-c2ccc(Cl)cc2Cl)c2c1COC/C2=C\c1ccc(F)cc1 (stereo not shown) [Cpd 27, (7Z)-1-(2,4-dichloro-phenyl)-7-(4-fluoro-benzylidene)-1,4,6,7-tetrahydro-pyrano[4,3-c]pyrazole-3-carboxylic acid (2,6-dimethyl-piperidin-1-yl)-amide]	20	77	40	–	–	–
O=C(NN1CCCC1)c1nn(-c2ccc(Cl)cc2Cl)c2c1COC/C2=C\c1ccsc1 [Cpd 47, (7Z)-1-(2,4-dichloro-phenyl)-7-thiophen-3-ylmethylene-1,4,6,7-tetrahydro-pyrano[4,3-c]pyrazole-3-carboxylic acid pyrrolidin-1-ylamide]	9	70	30	–	–	–
O=C(NN1CCCCC1)c1nn(-c2ccc(Cl)cc2Cl)c2c1COC/C2=C\c1cccs1 [Cpd 35, (7Z)-1-(2,4-dichloro-phenyl)-7-thiophen-2-ylmethylene-1,4,6,7-tetrahydro-pyrano[4,3-c]pyrazole-3-carboxylic acid piperidin-1-ylamide]	12	68	–	–	–	–
O=C(NN1CCCC1)c1nn(-c2ccc(Cl)cc2)c2c1COC/C2=C\c1ccc(F)cc1 [Cpd 16, (7Z)-1-(4-chloro-phenyl)-7-(4-fluoro-benzylidene)-1,4,6,7-tetrahydro-pyrano[4,3-c]pyrazole-3-carboxylic acid pyrrolidin-1-ylamide]	11	44	–	–	–	–
O=C(N[C@@H]1CCC[C@H]1O)c1nn(-c2ccc(Cl)cc2Cl)c2c1COC/C2=C\c1ccc(F)cc1 [Cpd 3, (7Z)-1-(2,4-dichloro-phenyl)-7-(4-fluoro-benzylidene)-1,4,6,7-tetrahydro-pyrano[4,3-c]pyrazole-3-carboxylic acid [(1R,2R)-2-hydroxy-cyclopentyl]-amide]	0	32	–	–	–	–
(7Z)-7-(5-chloro-thiophen-2-ylmethylene)-1-(2,4-dichloro-phenyl)-1,4,6,7-tetrahydro-pyrano[4,3-c]pyrazole-3-carboxylic acid [(2S)-2-benzyl-pentyl]-amide [Cpd 59]	–	–	–	17	38	–
O=C(N[C@H](CO)c1ccccc1)c1nn(-c2ccc(Cl)cc2Cl)c2c1COC/C2=C\c1ccsc1 [Cpd 48, (7Z)-1-(2,4-dichloro-phenyl)-7-thiophen-3-ylmethylene-1,4,6,7-tetrahydro-pyrano[4,3-c]pyrazole-3-carboxylic acid [(1S)-2-hydroxy-1-phenyl-ethyl]-amide]	17	36	–	–	–	–
C[C@@H](NC(=O)c1nn(-c2ccc(Cl)cc2Cl)c2c1COC/C2=C\c1cccs1)C1CCCCC1 [Cpd 33, (7Z)-1-(2,4-dichloro-phenyl)-7-thiophen-2-ylmethylene-1,4,6,7-tetrahydro-pyrano[4,3-c]pyrazole-3-carboxylic acid [(R)-1-cyclohexyl-ethyl]-amide]	15	88	10	–	–	–
O=C(NN1CC2CCCC2C1)c1nn(-c2ccc(Cl)cc2Cl)c2c1COC/C2=C\c1ccc(Cl)o1 (stereo not shown) [Cpd 71, (7Z)-7-(5-chloro-furan-2-ylmethylene)-1-(2,4-dichloro-phenyl)-1,4,6,7-tetrahydro-pyrano[4,3-c]pyrazole-3-carboxylic acid (hexahydro-cyclopenta[c]pyrrol-2-yl)-amide]	17	71	40	–	–	–
CN1CCN(NC(=O)c2nn(-c3ccc(Cl)cc3Cl)c3c2COC/C3=C\c2ccc(F)cc2)CC1 [Cpd 30, (7Z)-1-(2,4-dichloro-phenyl)-7-(4-fluoro-benzylidene)-1,4,6,7-tetrahydro-pyrano[4,3-c]pyrazole-3-carboxylic acid (4-methyl-piperazin-1-yl)-amide]	0	3	–	–	–	–
C[C@H](NC(=O)c1nn(-c2ccc(Cl)cc2Cl)c2c1COC/C2=C\c1ccc(Cl)o1)C1CCCCC1 [Cpd 63, (7Z)-7-(5-chloro-furan-2-ylmethylene)-1-(2,4-dichloro-phenyl)-1,4,6,7-tetrahydro-pyrano[4,3-c]pyrazole-3-carboxylic acid [(S)-1-cyclohexyl-ethyl]-amide]	10	–	–	–	–	25
CC1CCCC(C)N1NC(=O)c1nn(-c2ccc(Cl)cc2Cl)c2c1COC/C2=C\c1ccsc1 (stereo not shown) [Cpd 46, (7Z)-1-(2,4-dichloro-phenyl)-7-thiophen-3-ylmethylene-1,4,6,7-tetrahydro-pyrano[4,3-c]pyrazole-3-carboxylic acid (2,6-dimethyl-piperidin-1-yl)-amide]	20	68	–	–	–	–
COC[C@H]1CCCN1NC(=O)c1nn(-c2ccc(Cl)cc2Cl)c2c1COC/C2=C\c1ccc(F)cc1 [Cpd 75, (7Z)-1-(2,4-dichloro-phenyl)-7-(4-fluoro-benzylidene)-1,4,6,7-tetrahydro-pyrano[4,3-c]pyrazole-3-carboxylic acid [(2R)-2-methoxymethyl-pyrroldin-1-yl]-amide]	15	68	–	–	–	–
CN1CCN(NC(=O)c2nn(-c3ccc(Cl)cc3Cl)c3c2COCC3Cc2ccc(F)cc2)CC1 (stereo not shown) [Cpd 26, 1-(2,4-dichloro-phenyl)-7-(4-fluoro-benzyl)-1,4,6,7-tetrahydro-pyrano[4,3-c]pyrazole-3-carboxylic acid (4-methyl-piperazin-1-yl)-amide]	13	8	–	–	–	–
